Source: EP3906926A1, “PROLINE HYDROXYLASE INHIBITORS FOR USE IN THE SKELETAL MUSCLE REGENERATION” (Policlinico San Donato S.p.A.- Istituto di Ricovero e Cura …, priority 2020, dated 2021)

Experiments:
C2C12 murine myoblasts [1] = experiment: CellTox Cytotoxicity Assay; settings: at IC50 concentrations (50 µM IOX2, 40 µM FG-4592), 24 hours, vs untreated controls
Protocol: To assess PHDs inhibitors cytotoxicity, 5 x 10^3 C2C12 murine myoblasts were seeded in a 96-well plate.

MHC [2] = experiment: Western blot of MHC in WNT7a-KO versus wild type myoblasts at end of differentiation; assay type: cell-based, murine; settings: WNT7a-KO vs wild type cells, inhibitor pre-treated
Protocol: Cells were collected after enzymatic digestion with trypsin (Merck), lysed by sonication and centrifuged at 800 xg for 10 minutes. Supernatant was used to determine total protein content with the BCA Protein Assay Kit (Pierce), according to the manufacturer's instructions.
Proteins were denaturated by boiling for 10 minutes in sample buffer (0.6 g/100 mL Tris, 2 g/100 mL SDS, 10% glycerol, 1% 2-mercaptoethanol, pH 6.8) and loaded into 10% SDS-PAGE gel, then transferred onto a nitrocellulose membrane (Trans-blot, Bio-Rad Laboratories) by electroblotting. Nitrocellulose membranes were incubated with a blocking solution containing 5% (w/v) non-fat dry milk or 5% (w/v) BSA (Merck) in Tris-buffer saline with 0.1% Tween® 20 (TBS-T) for 1 hour. […] Membranes were washed three times for 10 minutes with TBS-T, and then incubated with the appropriate anti-mouse, anti-rabbit, or anti-goat HRP-conjugated secondary antibodies (Dako, Agilent Technologies), 1:2000 dilution, for 1 hour at room temperature. After three washes for 10 minutes with TBS-T, the immunoreactive bands were visualized using the enhanced chemiluminescence detection kit reagents (ECL Advance, GeHealthcare), according to the manufacturer's instructions.
(§1) Therefore, WNT7a silencing was conducted by Crispr/Cas9 genome editing in C2C12 murine myoblasts and the effects on myogenesis were evaluated.

PHDs = experiment: ODD-luciferase reporter assay (Dual-Glo) for PHDs inhibition; settings: C2C12 myoblasts transfected with ODD-luciferase-pcDNA3; 24 hours at 10, 25, 50, 100 µM, normoxic conditions; linear regression
Protocol: The IC50 was calculated using a Dual-Glo® Luciferase Assay System kit (Promega) that allows a high-throughput analysis of mammalian cells containing the Firefly (Luciferase-pcDNA3, ODD-Luciferase-pcDNA3) and Renilla (pRL-CMV) luciferase reporters. Briefly, 5 x 10^3 cells per well were seeded in a 96-well plate, and then transfected for 24 hours with a Luciferase-pcDNA3 or an ODD-Luciferase-pcDNA3 (80 ng), containing the firefly gene reporter. A co-transfection with pRL-CMV (8 ng), containing the renilla gene reporter, was performed as an internal control, according to the ViaFect Transfection Reagent® protocol (Promega). After transfection, cells were treated with 10, 25, 50, and 100 µM IOX2 or FG-4592 (R oxadustat) for 24 hours, and then an equal volume of Dual-Glo® Luciferase Reagent was added to each well, incubated at room temperature for 30 minutes, and then analyzed with a Varioskan™ LUX Multimode Microplate Reader (ThermoFisher Scientific). Then, an equal volume of Dual-Glo® Stop & Glo® Reagent was added to each well in order to quench the luminescence from the firefly reaction and to provide the substrate for the renilla luciferase. The mixture was incubated for 30 minutes before analysis. The IC50 values were calculated by linear regression.
To this purpose, the IC50 of both compounds was determined by transiently co-transfecting C2C12 myoblasts with the ODD-luciferase-pcDNA3 plasmid, containing the Oxygen Dependent Domain (ODD) of HIF-1α, and with the pRL-CMV plasmid, as the internal control (Figure 4, panel A). Then, transfected cells were treated for 24 hours with IOX2 or FG-4592 at different concentrations (10, 25, 50, and 100 µM) under normoxic conditions, and the emitted luminescence was collated to untreated controls.
The EC50 was calculated using a Dual-Glo® Luciferase Assay System kit (Promega) that allows a high-throughput analysis of mammalian cells containing the Firefly (Luciferase-pcDNA3, ODD-Luciferase-pcDNA3) and Renilla (pRL-CMV) luciferase reporters. Briefly, 5 x 10^3 cells per well were seeded in a 96-well plate, and then transfected for 24 hours with a Luciferase-pcDNA3 or an ODD-Luciferase-pcDNA3 (80 ng), containing the firefly gene reporter. A co-transfection with pRL-CMV (8 ng), containing the renilla gene reporter, was performed as an internal control, according to the ViaFect Transfection Reagent® protocol (Promega). […] Then, an equal volume of Dual-Glo® Stop & Glo® Reagent was added to each well in order to quench the luminescence from the firefly reaction and to provide the substrate for the renilla luciferase. The mixture was incubated for 30 minutes before analysis. The EC50 values were calculated by linear regression.
The EC50 of each compound was determined by transiently co-transfecting C2C12 myoblasts with the ODD-luciferase-pcDNA3 plasmid, containing the Oxygen Dependent Domain (ODD) of HIF-1α, and with the pRL-CMV plasmid, as the internal control (Figure 12, panel A).

MHC [3] = experiment: qPCR of MHC during differentiation; assay type: cell-based, murine; settings: day 7 of differentiation, IOX2 or FG-4592 pre-treated myoblasts
Protocol: (§2) Total RNA was isolated using ReliaPrep™ RNA Miniprep Systems (Promega), and reverse transcribed to cDNA using the iScript cDNA synthesis kit (BioRad), according to the Manufacturer's instructions. Real-Time Quantitative PCR was performed on 10 ng of cDNA template, 0.2 µM primers, and GoTaq® qPCR Master Mix (Promega) in 20 µl final volume using a StepOnePlus® Real-Time PCR System (Applied Biosystem). […] RPL13 was used as the housekeeping gene. The amplification program consisted in an initial denaturation at 95°C for 3 minutes, followed by 40 cycles of 5 seconds each at 95°C and 30 seconds at 57°C; WNT7a was amplified at 53°C. Relative quantification of target genes was performed in triplicate and calculated by the equation 2^-ΔΔCt.
as §2, with “ReliaPrepTM” for “ReliaPrep™”, “2-ΔΔCt.” for “2^-ΔΔCt.”

C2C12 murine myoblasts [4] = experiment: RealTime-Glo MT Cell Viability Assay; settings: at IC50 concentrations (50 µM IOX2, 40 µM FG-4592), 24 hours, vs untreated controls
Protocol: RealTime-Glo™ kits MT Cell Viability Assay (Promega) was used to investigate the effects of IOX2 and FG-4592 treatment on cell viability. Briefly, 5 x 10^3 C2C12 murine myoblasts were seeded in a 96 well plate and incubated for 24 hours (T0) with MT Cell Viability Substrate (1:1000 dilution) and NanoLuc® Enzyme (1:1000 dilution). Then, 50 µM IOX2 or 40 µM FG-4592 were added to the cell cultures and incubated for other 24 hours before luminescence analysis.
RealTime-Glo™ kits MT Cell Viability Assay (Promega) was used to investigate the effects of PLG treatment on cell viability. Briefly, 5 x 10^3 C2C12 murine myoblasts were seeded in a 96 well plate and incubated for 24 hours (T0) with MT Cell Viability Substrate (1:1000 dilution) and NanoLuc® Enzyme (1:1000 dilution). Then, each PLG inhibitor was added at its EC50 to the cell cultures and incubated for other 24 hours before luminescence analysis.

WNT7a = experiment: qPCR of WNT7a gene expression; assay type: cell-based, murine; settings: IOX2 or FG-4592 treatment
Protocol: as §2

[5] = system: WNT7a silenced murine myoblasts (WNT7a-KO); experiment: Differentiation of WNT7a-KO versus wild type myoblasts after chemical hypoxia (fusion and differentiation indexes); assay type: cell-based; settings: WNT7a-KO vs wild type cells, 24 hours inhibitor pre-treatment then 7 days differentiation
Protocol: (§3) After differentiation for 7 days in DM, cells were washed with phosphate saline buffer (PBS) and fixed for 15 minutes in 4% (w/v) paraformaldehyde at room temperature. For permeabilization and blocking, cells were incubated for 1 hour in the presence of PBS 0.1% (v/v) Triton X-100 (TX-100, Merck) and 5% (w/v) FBS (Merck) at room temperature. […] After incubation, cells were washed three times in PBS and incubated for 1 hour at room temperature with an anti-mouse FITC-conjugated secondary antibody (Jackson ImmunoResearch), diluted 1:200. […] Myogenesis was assessed by measuring the myotube area and the number of myonuclei per myotube using a fluorescent microscope (Olympus TH4-200) equipped with an acquisition camera. To quantify both differentiation and fusion indexes, ten fields were chosen randomly and, for each field, a minimum of one hundred myosin-positive myotubes with more than two myonuclei were measured using the ImageJ v1.49o software. The area and the number of nuclei per myotube was the mean of ten measurements averaged from three different experiments.
as §1
The knockout of WNT7a gene was obtained performing CRISPR/Cas9 genome editing. In particular, crRNAs and tracrRNA were obtained from TrueGuide™ Synthetic gRNA kit (ThermoFisher Scientific) and they were reconstituted and annealed following the manufacturer's instructions. […] Briefly, they were re-suspended using 1X Tris-EDTA buffer pH 8.0 to prepare a 100 µM stock solution. Then, gRNAs were generated preparing a mix composed of 10 µL crRNA, 10 µL tracrRNA, 10 µL annealing buffer, and 20 µL nuclease-free water. The mixture was incubated at 95 °C for 5 minutes followed by 10 mins on 78 °C, and then 25 °C for 5 minutes.
The transfection was performed seeding 5 x 10^5 murine myoblasts C2C12 in a 24-well plate.
The diluted Lipofectamine ™ CRISPRMAX ™ reagent in Opti-MEM I Medium was incubated 1 minute at room temperature and, then, it was added to gRNA/Opti-MEM I solution for 15 minutes. Then, the mixture was added to murine myoblasts and it was incubated at 37°C for 2 days. After the incubation, single-cell clones were isolated using a limiting dilution cloning in 96-well plates. The efficiency of WNT7a knockout (WNT7a-KO) was verified by sequencing.

murine myoblasts C2C12 = experiment: Skeletal muscle differentiation, MHC immunofluorescence (fusion and differentiation indexes); assay type: cell-based; settings: IOX2 or FG-4592 24 hours in GM, then 7 days in DM without inhibitor; vs untreated controls
Protocol: (§4) The DM was changed every day for 7 days. Cells were analyzed at 24 hours post-treatment (PT), at 3rd and 7th days of skeletal muscle differentiation.
as §3, §4

| SMILES | Cell toxicity (C2C12 murine myoblasts [1]) | decrease of MHC expression (MHC [2]) | IC50 (PHDs) | enhancement of MHC (MHC [3]) | Cell viability (C2C12 murine myoblasts [4]) | increase in WNT7a gene expression (WNT7a) | decrease in fusion index [5] | reduction in differentiation index [5] | fusion index (murine myoblasts C2C12) | increase in the differentiation index (murine myoblasts C2C12) |
| --- | --- | --- | --- | --- | --- | --- | --- | --- | --- | --- |
| O=C(O)CNC(=O)c1c(O)c2ccccc2n(Cc2ccccc2)c1=O [IOX2] | no significant changes | 18% | 50 µM | 2.2 fold | no significant changes | 1.4 fold | 67% | no significant changes | no significant changes | 1.5 fold |
| Cc1nc(C(=O)NCC(=O)O)c(O)c2ccc(Oc3ccccc3)cc12 [FG-4592, Roxadustat] | no significant changes | 36% | 40 µM | 2.3 fold | no significant changes | 2.3 fold | 63% | 15% | – | 1.3 fold |
